ARP and EC50 data for four compounds are collected here from ChEMBL document CHEMBL1138702, “Determination of the free radical scavenging activity of dihydropyran-2,4-diones” (Bioorg Med Chem Lett, 2004).

Test [1] in a line: Antioxidant ability determined by the parameter antiradical power that is related to the factor EC50.
The nature of test [2]: Concentration required to decrease the initial concentration of 2,2-diphenyl-1-picrylhydrazyl (DPPH) by 50% after 60 min. Background: DPPH is a stable violet radical that fades when it is reduced.

Structures are written as SMILES.

What is called EC50 is the midpoint of the concentration-response curve. In test [1], `O=C1CC(=O)OC(c2ccccc2)C1` (stereo not drawn) came in with an ARP of 0.71 m/M. The compound also showed an EC50 in test [2] of 1.4 mM.

Consider `COc1ccc(C2CC(=O)CC(=O)O2)cc1OC` (stereo not drawn), for which the ARP in test [1] was 0.14 m/M. The same compound registered an EC50 in test [2] of 7.13 mM.

`C/C=C/C1CC(=O)CC(=O)O1` (stereo not drawn) showed an ARP in test [1] of 0.7 m/M. In addition, it took 1.44 mM to reach a half-maximal effect in test [2] (EC50).

Turning to `COc1ccc(C2CC(=O)CC(=O)O2)cc1` (stereo not drawn), in test [1], the ARP was 0.13 m/M. Also, a half-maximal response in test [2] (EC50) required 7.61 mM.
